ChEMBL document CHEMBL1201862, “PubChem BioAssay data set” (2004)
Activity calls are given as the source filed them.

What was measured:
[1] = target: T1, Insulin-degrading enzyme (Homo sapiens, UniProt P14735); test: Dose Response: Fluorescence polarization-based cell-based high throughput dose response assay for inhibitors of insulin-degrading enzyme (IDE). [Related pubchem assays: 434962 (Primary screen (IDE inhibitors in singlicate)), 449730 (Counterscreen (Cytotoxicity in triplicate)), 435028 (Confirmation (IDE inhibitors in triplicate)), 434984 (Summary …; assay type: functional
T1 sequence (P14735 whole entry): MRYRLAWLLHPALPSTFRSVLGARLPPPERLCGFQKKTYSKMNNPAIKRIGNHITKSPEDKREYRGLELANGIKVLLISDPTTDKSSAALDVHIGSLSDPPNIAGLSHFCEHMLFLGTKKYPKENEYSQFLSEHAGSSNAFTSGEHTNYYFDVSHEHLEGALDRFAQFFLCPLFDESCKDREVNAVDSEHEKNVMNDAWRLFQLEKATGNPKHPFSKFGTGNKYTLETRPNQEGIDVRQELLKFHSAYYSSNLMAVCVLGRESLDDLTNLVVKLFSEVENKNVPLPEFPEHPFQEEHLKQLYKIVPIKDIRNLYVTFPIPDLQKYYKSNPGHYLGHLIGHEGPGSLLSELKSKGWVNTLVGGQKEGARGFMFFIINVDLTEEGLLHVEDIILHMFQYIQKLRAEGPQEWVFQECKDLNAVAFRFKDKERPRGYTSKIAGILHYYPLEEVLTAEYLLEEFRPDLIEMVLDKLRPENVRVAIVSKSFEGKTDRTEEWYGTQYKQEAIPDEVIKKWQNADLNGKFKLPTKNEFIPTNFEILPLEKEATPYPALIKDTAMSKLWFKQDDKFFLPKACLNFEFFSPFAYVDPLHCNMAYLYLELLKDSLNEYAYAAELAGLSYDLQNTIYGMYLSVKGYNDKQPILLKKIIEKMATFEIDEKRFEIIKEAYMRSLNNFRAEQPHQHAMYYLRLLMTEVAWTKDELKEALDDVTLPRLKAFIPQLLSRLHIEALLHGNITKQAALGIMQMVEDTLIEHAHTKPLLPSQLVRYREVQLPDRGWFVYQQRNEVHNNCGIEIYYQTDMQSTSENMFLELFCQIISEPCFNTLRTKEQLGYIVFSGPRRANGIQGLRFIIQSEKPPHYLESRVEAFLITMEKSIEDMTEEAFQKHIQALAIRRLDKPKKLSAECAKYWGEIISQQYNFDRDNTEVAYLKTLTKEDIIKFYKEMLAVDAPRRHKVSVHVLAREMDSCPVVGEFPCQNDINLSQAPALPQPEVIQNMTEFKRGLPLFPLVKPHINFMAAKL

[2] = viability of uninfected HEp-2 cells – cell-based, HTS, cytotoxicity control for RSV inhibitor project, dose response (AID 2410); assay type: functional; conditions: human respiratory syncytial virus
[3] = Counterscreen for IDE inhibitors: Luminescence-based cell-based high throughput dose response assay to identify compounds that are cytotoxic to HEK cells. [Related pubchem assays: 434962 (Primary screen (IDE inhibitors in singlicate)), 449730 (Counterscreen (Cytotoxicity in triplicate)), 435028 (Confirmation (IDE inhibitors in triplicate)) …; assay type: functional; conditions: HEK293
[4] = luciferase reporter signal suppression in cells – H4 neuroglioma cells, luminescence, dose response (AID 1990); assay type: functional, cell-based
[5] = Counterscreen for AddAB inhibitors: absorbance-based bacterial cell-based high throughput dose response assay for inhibitors of bacterial viability. [Related pubchem assays (depositor defined):AID435030, AID449728, AID449731, AID488942, AID488955, AID488956]; assay type: functional
[6] = target: T2, Exodeoxyribonuclease V (Escherichia coli (strain K12), UniProt P04993+P07648+P08394); test: RecBCD inhibition via phage-restricted bacterial growth – absorbance, V66 E. coli, mutant T4 phage, counter-screen for AddAB inhibitor project, dose response (AID 492957); assay type: functional, cell-based, Escherichia coli str. K-12 substr. MG1655
T2 sequence (P04993 whole entry): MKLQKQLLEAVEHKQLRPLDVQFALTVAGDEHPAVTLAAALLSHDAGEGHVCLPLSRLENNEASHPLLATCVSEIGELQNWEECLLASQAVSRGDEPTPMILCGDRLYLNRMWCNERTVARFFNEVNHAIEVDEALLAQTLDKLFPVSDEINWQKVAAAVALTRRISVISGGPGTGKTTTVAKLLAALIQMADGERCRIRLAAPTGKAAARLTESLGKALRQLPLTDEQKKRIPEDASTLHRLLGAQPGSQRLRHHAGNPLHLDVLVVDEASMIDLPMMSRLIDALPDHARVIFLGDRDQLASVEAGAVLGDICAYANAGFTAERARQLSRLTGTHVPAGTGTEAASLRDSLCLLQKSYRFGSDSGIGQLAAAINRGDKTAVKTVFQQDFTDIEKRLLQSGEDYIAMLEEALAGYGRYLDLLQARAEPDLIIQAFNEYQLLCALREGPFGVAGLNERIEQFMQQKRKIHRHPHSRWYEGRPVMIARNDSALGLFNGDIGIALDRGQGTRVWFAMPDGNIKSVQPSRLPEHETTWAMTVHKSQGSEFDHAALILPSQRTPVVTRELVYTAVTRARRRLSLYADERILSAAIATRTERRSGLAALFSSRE
T2 sequence (P07648 whole entry): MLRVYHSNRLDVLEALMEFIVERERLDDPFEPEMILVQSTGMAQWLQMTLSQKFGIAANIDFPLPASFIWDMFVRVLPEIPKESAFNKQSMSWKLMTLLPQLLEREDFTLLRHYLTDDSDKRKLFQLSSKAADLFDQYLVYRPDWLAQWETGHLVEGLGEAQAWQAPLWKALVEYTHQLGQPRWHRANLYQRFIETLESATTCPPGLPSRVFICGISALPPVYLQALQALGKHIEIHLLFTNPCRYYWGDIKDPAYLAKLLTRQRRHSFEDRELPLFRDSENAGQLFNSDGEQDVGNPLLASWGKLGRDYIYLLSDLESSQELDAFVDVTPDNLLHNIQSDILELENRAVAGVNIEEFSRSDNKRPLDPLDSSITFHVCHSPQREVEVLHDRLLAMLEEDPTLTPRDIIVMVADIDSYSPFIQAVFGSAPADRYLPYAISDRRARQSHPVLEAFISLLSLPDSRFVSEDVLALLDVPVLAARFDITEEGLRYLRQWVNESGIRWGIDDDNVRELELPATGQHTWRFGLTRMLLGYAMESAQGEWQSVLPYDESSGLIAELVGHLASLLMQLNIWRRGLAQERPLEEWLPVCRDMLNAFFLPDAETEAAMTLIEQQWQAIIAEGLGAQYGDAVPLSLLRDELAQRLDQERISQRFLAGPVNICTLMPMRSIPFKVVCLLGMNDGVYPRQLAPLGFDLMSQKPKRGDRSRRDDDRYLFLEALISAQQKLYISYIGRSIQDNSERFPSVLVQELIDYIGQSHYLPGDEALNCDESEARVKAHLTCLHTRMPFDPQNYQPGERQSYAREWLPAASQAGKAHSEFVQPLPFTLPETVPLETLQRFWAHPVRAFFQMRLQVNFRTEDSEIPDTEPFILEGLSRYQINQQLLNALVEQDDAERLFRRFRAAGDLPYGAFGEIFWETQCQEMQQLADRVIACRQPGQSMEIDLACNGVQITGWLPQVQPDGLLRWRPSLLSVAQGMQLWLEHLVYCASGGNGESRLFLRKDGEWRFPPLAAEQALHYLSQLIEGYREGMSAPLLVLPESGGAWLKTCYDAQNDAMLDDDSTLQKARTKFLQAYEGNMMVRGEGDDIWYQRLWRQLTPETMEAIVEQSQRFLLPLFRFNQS
T2 sequence (P08394 whole entry): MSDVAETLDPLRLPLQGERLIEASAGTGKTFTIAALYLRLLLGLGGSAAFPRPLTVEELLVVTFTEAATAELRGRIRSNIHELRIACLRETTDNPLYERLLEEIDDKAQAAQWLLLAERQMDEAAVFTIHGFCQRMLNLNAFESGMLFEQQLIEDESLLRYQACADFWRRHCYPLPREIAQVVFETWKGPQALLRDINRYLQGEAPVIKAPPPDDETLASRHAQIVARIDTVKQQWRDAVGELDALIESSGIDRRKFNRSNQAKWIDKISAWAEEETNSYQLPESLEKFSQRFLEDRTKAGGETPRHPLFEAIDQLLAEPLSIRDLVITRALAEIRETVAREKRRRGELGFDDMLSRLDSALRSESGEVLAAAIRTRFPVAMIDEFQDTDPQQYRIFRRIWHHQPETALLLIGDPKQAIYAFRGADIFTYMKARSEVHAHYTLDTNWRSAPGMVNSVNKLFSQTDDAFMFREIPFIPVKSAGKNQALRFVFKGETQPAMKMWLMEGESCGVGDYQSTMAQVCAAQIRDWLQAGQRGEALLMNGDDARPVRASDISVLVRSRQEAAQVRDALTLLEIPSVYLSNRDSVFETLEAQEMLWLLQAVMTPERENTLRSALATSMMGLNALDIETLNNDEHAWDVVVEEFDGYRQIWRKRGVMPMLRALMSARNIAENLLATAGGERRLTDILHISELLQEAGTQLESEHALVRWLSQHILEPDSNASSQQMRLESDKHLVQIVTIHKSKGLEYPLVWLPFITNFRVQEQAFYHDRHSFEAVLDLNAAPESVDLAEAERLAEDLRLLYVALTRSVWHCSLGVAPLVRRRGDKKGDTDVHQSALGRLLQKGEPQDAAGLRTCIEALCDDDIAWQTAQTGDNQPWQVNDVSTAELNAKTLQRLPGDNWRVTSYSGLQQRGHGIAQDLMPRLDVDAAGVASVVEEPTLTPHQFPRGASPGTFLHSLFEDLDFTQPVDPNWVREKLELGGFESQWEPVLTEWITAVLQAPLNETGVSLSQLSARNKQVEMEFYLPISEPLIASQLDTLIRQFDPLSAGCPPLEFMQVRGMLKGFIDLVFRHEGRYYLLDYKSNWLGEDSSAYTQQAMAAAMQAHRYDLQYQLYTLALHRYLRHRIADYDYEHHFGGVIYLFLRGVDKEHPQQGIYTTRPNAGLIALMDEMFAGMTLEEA

[7] = target: Nonstructural protein 1 (Influenza A virus, UniProt Q194T2); assay type: functional, Influenza A virus (A/California/07/2009(H1N1))
[8] = Luminescence Cell-Based Dose Response HTS to Identify Inhibitors of 5'UTR Stem-Loop Driven Prion Protein mRNA Translation in H4 Neuroglioblastoma Cells. [Related pubchem assays: 1827 (Project Summary), 1813 (Primary HTS)]; assay type: functional
[9] = tested on: BJ; test: cells; assay type: functional, cell-based; conditions: Homo sapiens
[10] = DRD fibroblast viability loss – cell-based, non-viral oncogenic, luminescence, dose response (AID 1934); assay type: functional; conditions: Homo sapiens
[11] = target: Heat shock protein HSP 90-alpha (Homo sapiens, UniProt P07900); assay type: functional, organism-based
[12] = tested on: BJ; test: BJ-TERT-LT-ST fibroblast viability loss – cell-based, RAS-independent, luminescence, dose response (AID 1935); assay type: functional; conditions: Homo sapiens;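 also: BJ fibroblasts immortalized with TERT plus LT and ST oncogenes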
[13] = tested on: BJ; test: growth inhibition of engineered Ras-driven BJ cells – cell-based, alamar blue fluorescence, cherrypicked samples, dose response (AID 2631); assay type: functional; conditions: Homo sapiens;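 also: confirmatory dose-response assay in RAS-dependent BJ fibroblasts engineered with TERT, LT and ST, with cytotoxicity read by fluorescence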
[14] = target: Galanin receptor type 2 (Homo sapiens, UniProt O43603); test: Dose Response cell-based high-throughput screening assay to identify antagonists of galanin receptor 2 (GALR2). [Related pubchem assays: 828, 866 ]; assay type: functional
[15] = alpha-synuclein stem-loop luciferase translation blockers – H4 neuroglioma cells, luminescence, confirmation (AID 1988); assay type: functional, cell-based
[16] = tested on: BJ; test: BJ-TERT fibroblast viability loss – cell-based, RAS-independent, luminescence, dose response (AID 1933); assay type: functional; conditions: Homo sapiens
[17] = tested on: Danio rerio; test: In Vivo Angiogenesis Dose-Response Confirmation. [Related pubchem assays: 732 (Assay preceding this confirmatory assay.)]; assay type: functional, organism-based
[18] = NIH-3T3 fibroblast cytotoxicity, dose response, cytotoxicity control, cell-based, fluorescence, Alamar Blue, secondary assay (AID 2327); assay type: functional;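 also: NIH-3T3 mouse fibroblasts cultured with fluconazole at 8 µg/mL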
[19] = target: Oxytocin receptor (Homo sapiens, UniProt P30559); test: Fluorescence-based cell-based high throughput dose response assay for potentiators of Oxytocin Receptor (OXTR). [Related pubchem assays: 434985 (Confirmation screen (OXTR potentiators in triplicate)), 2481 (Summary (OXTR potentiators)), 2445 (Primary screen (OXTR potentiators in singlicate))]; assay type: functional
Oxytocin receptor, sequence (P30559 whole entry): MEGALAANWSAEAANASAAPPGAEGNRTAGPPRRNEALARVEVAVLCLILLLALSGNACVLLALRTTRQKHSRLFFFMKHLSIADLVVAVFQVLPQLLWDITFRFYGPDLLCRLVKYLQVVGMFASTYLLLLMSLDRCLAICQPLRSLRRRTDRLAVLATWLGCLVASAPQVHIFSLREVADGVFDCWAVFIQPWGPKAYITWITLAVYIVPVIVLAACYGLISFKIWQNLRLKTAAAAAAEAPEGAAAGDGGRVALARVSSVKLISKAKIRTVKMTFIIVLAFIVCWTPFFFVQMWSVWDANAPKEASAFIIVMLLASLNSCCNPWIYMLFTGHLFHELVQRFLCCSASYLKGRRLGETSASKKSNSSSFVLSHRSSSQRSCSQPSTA

Galanin receptor type 2, sequence (O43603 whole entry): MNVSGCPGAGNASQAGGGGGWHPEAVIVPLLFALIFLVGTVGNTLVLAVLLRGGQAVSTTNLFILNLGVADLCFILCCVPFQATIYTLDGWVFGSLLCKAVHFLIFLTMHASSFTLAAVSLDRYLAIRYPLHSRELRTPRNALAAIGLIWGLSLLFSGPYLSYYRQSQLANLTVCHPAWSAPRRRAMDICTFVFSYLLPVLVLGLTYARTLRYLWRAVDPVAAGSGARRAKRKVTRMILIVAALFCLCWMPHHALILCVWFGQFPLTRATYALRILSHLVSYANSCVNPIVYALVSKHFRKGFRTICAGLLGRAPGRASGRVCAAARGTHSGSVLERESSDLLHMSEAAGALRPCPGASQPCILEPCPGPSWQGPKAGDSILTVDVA
Nonstructural protein 1, sequence (Q194T2 whole entry): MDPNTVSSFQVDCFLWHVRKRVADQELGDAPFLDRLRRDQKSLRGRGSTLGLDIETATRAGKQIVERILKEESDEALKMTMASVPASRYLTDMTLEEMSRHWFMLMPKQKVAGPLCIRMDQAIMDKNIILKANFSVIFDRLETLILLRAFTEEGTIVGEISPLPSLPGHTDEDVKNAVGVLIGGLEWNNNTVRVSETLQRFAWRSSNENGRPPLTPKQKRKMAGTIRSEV

Structure (SMILES): Cc1ccc(NC2=NC(=O)/C(=C/c3cn(C)c4ccccc34)S2)cc1C
- IC50 [1]: 18.4 µM (not active)
- CC50 [2]: 6.5 µM (active)
- IC50 [3]: 16.5 µM (not active)

Structure (SMILES): c1cnc2c(c1)ccc1cccnc12 [PHENANTHROLINE]
- EC50 [4]: 6.95 µM (active)
- IC50 [5]: 35.2 µM (inactive)
- IC50 [6]: 30.5 µM (inactive)
- IC50 [7]: 0.902 µM (active)
- EC50 [8]: 5.66 µM (active)
- EC50 [9]: 8.88 µM (inconclusive)
- EC50 [10]: 16.4 µM (active)
- AC50 [11]: 7.11 µM (active)
- EC50 [12]: 7.62 µM (inconclusive)
- EC50 [13]: 6.14 µM (active)
- IC50 [14]: > 42 µM (not active)
- EC50 [15]: 7.02 µM (active)
- EC50 [16]: 5.03 µM (active)
- IC50 [17]: 7.51 µM (active)
- EC50 [18]: 9.41 µM (inconclusive)

Structure (SMILES): CCOc1ccccc1NC(=O)c1cccc(NC(=O)CC(c2ccccc2)c2ccccc2)c1
- EC50 [19]: > 29.9 µM (not active)
